One assay relates to E. coli K12 5K. The assay can be described thus: ζ-potential estimate of the maximum number of surface-adsorbed AMPs. In kind it is cell-based, Escherichia coli. As to conditions: for fraction of cell associated peptides that do not enter inner compartments: at bacteria inhibition levels of 10%; for NPmax/NB, ratio of surface-adsorbed to cell-partitioned AMPs (upper boundary): at the MIC. The procedure:
DLS and ζ-potential measurements were carried out with a Zetasizer Nano ZSP (Malvern Panalytical, Malvern, UK). E. coli suspensions were incubated with a given AMP concentration at 37°C for 1 h prior to each measurement. […] Control samples (no AMPs) were suspended and incubated in buffer alone. […] Because of the high conductivity of PBS, the electrode voltage was set to 4 V for ζ-potential measurements to keep currents below 1 mA. Further, measurements were paused for 180 s between individual runs. This prevented Joule heating leading to sample denaturation and electrode blackening. Experiments were repeated three times on different preparations, each consisting of at least six measurements. Reported ζ-potential values are given by the median of the corresponding measurements (i.e., from at least 18 values) and errors were derived using the median absolute deviations.
Remembering that ζ-potential values are sensitive only to the charges exposed to the outside of any particle, including bacteria, we can obtain upper boundaries for the number of surface adsorbed peptides. Given the high abundance of lipopolysaccharides (LPS) in the outer leaflet (about 70–90 vol%) of Gram-negative bacteria, as compared to other charged lipid species such as PG and CL (<2 vol%) and membrane proteins (7–20 vol%) ([40]), it is justified to assume that LPS dominates the surface potential of E. coli. Then, following considerations put forth for peptides partitioning in liposomes ([31], [41]), the ratio of ζ-potential values in the presence and absence of AMPs is […]
(9) ζ/ζ0≈σ/σ0≃(S0/S)∑iNizi+NPzP/NLPS0zLPS, where (σ, σ0) and (S, S0) are the corresponding surface charge densities and cell surface areas, respectively. Further, NLPS0 is the initial number of LPS molecules in the outer leaflet, with a nominal charge zLPS ≃ −6 ([42]); NP is the number of surface adsorbed AMPs of nominal charge zP ≃ +5 ([20]); and ∑iNizi=NLPSzLPS+NPGzPG+NCLzCL considers anionic lipids that translocate into the outer leaflet due to AMP activity ([3], [6], [18]). This term also accounts for a possible loss of LPS molecules in the outer leaflet due to vesiculation processes ([25]). Note that Equation (9) is only valid for |ζ| ≤ 25 mV, in which range ζ ∝ σ ([43]). […] Rearranging Equation (9) leads to […]
(13) NPmax/NLPS0≈(zLPS/zP)(ζ/ζ0-1), where NPmax is the upper boundary of surface adsorbed peptides. […] For example, using DLS, we measured a hydrodynamic diameter of E. coli K12 2RH = 980 ± 30 nm, from which we calculate S0≃4.5×10^6 nm^2, approximating the bacteria's shape with a cylinder of radius r and length l using RH2≃r^2/2+l^2/12 and r ~ 400 nm ([47]). […]

Assay [1] in a line: ANTS/DPX dye leakage assay and equi-activity partitioning analysis. The note with it: for K (mole fraction partitioning coefficient) / RB ([P]B/[L]) / [P]W (peptide concentration in the water phase): fit of Equation (4), [L] = (1−20) mM, [P] = (0.05−2) mM, HBS. The procedure:
All hydrated samples were equilibrated for 1 h at 40°C followed by 5 freeze-and-thaw cycles using liquid N2 and intermittent vortex-mixing. Large unilamellar vesicles (LUVs) were obtained by 31 extrusions with a handheld mini extruder (Avanti Polar Lipids, Alabaster, AL) using a 100 nm pore diameter polycarbonate filter. Vesicle size and polydispersity were determined via DLS using a Zetasizer NANO ZSP (Malvern Panalytical, Malvern, UK). ANTS/DPX-containing vesicles were separated from free ANTS/DPX by exclusion chromatography using a column filled with SephadexTM G-75 (Amersham Biosciences, Little Chalfont, UK) fine gel swollen in iso-osmotic HBS. Phospholipid concentrations for all samples were determined by phosphate analysis.
Dye leakage experiments were performed combining previously reported protocols ([20], [27]). […] Similar time protocols were applied previously ([27]) and are justified here based on separate time-resolved leakage experiments (Supplementary Figure 3) and Trp-fluorescence measurements (Figure 3), showing that a quasi steady state has been reached after 1 h. Before measurements, lipid/peptide solutions were diluted with HBS to a lipid concentration of 50 μM, and every measurement was repeated at least twice. Vesicle size was checked after each incubation period using DLS. Samples were excited at λ= 360 nm, and the intensity of the fluorescence emission peak at λ= 530 nm, Ip, was recorded with a slit width of 10 nm for both excitation and emission monochromators. Measurements were performed in quartz cuvettes in 2 ml of the iso-osmotic buffer on a Cary Eclipse Fluorescence Spectrophotometer (Varian/Agilent Technologies, Palo Alto, CA). The percentage of leakage, E%, was calculated according to the relation
(1) E%=Ip-Imin/Imax-Imin,
where Imin is the initial fluorescence without peptide, and Imax is the fluorescence corresponding to 100% leakage determined through the addition of a 1 vol% solution of Triton X-100. The initial, monotonic increase of E% values with increasing [P] was interpolated with a sigmoidal function. This enabled us to obtain peptide and lipid concentrations leading to a specific E% value, which can in turn be used to calculate the partitioning parameters (see section 2.3.1).
(4) [P]=RB[W]/K︸[P]W+RB[L]︸[P]B=RB([W]/K+[L]),

[2] abbreviates: POPG LUVs, leakage 10%, 1 h at 37°C.
[3] abbreviates: POPG LUVs, leakage 20%, 1 h at 37°C.
[4] abbreviates: POPG LUVs, leakage 40%, 1 h at 37°C.

In the case of “H-FWRIRIRR-NH2 [LF11-215, H-FWRIRIRR-NH2]”, in the assay on E. coli K12 5K, the “fraction of cell associated peptides that do not enter inner compartments” value is ~ 5% and the “NPmax/NB, ratio of surface-adsorbed to cell-partitioned AMPs (upper boundary)” value is “about 1%”. In assay [1] (setting [2]), the “K (mole fraction partitioning coefficient)” value was 2.4 ± 0.7 ×10^4, the “RB ([P]B/[L])” value is listed as 36 ± 4 ×10^−3 and the “[P]W (peptide concentration in the water phase)” value is 0.08 ± 0.03 mM. Further, in assay [1] (setting [3]), the “K (mole fraction partitioning coefficient)” value was 4.2 ± 0.4 ×10^4, the “RB ([P]B/[L])” value is recorded as 55.9 ± 1.6 ×10^−3 and the “[P]W (peptide concentration in the water phase)” value was found to be 0.073 ± 0.009 mM. For the same substance, in assay [1] (setting [4]), the “K (mole fraction partitioning coefficient)” value is 5.4 ± 1.4 ×10^4, the “RB ([P]B/[L])” value is 72 ± 6 ×10^−3 and the “[P]W (peptide concentration in the water phase)” value is 0.08 ± 0.03 mM. Besides, the “ANTS/DPX leakage, maximum reached (sigmoidal increase up to)” value in assay [1] (POPG LUVs, 1 h at 37°C, increasing [P]) was not above 100%. Further, the “fraction of peptides partitioned into the lipid phase” value in assay [1] (POPG, at [L] ≃20 mM) was more than 90%.
As for “H-PFFWRIRIRR-NH2 [LF11-324, H-PFFWRIRIRR-NH2]”, in the assay with E. coli K12 5K, the “fraction of cell associated peptides that do not enter inner compartments” value is ~ 18% and the “NPmax/NB, ratio of surface-adsorbed to cell-partitioned AMPs (upper boundary)” value is approximately 5%.

The values above are taken from publication PMC8757871, “Bridging the Antimicrobial Activity of Two Lactoferricin Derivatives in E. coli and Lipid-Only Membranes” (Frontiers in Medical Technology, 2021).
